“And” between values parts separate entries of the source, which are not always exact repeats. Identical values can stand only once. ± gives the expanded uncertainty stated by the source.
Conditions: Liquid; for viscosity: Falling or rolling sphere viscometry; for mass density: 101.33 kPa

CCCCC(CC)COC(=O)c1ccccc1 (stereo not drawn) [2-ethylhexyl benzoate]
Conditions	viscosity
263.15 K, 100 kPa	29.42 ± 0.65 mPa·s and 29.39 ± 0.65 mPa·s
268.15 K, 100 kPa	21.45 ± 0.48 mPa·s and 21.43 ± 0.48 mPa·s
273.15 K, 100 kPa	16.21 ± 0.36 mPa·s and 16.22 ± 0.36 mPa·s
273.15 K, 700 kPa	16.39 ± 0.36 mPa·s
273.15 K, 14200 kPa	20.88 ± 0.46 mPa·s
273.15 K, 16100 kPa	22.11 ± 0.49 mPa·s
273.15 K, 29700 kPa	28.8 ± 0.64 mPa·s
273.15 K, 45500 kPa	38.79 ± 0.86 mPa·s
273.15 K, 47100 kPa	39.5 ± 0.88 mPa·s
273.15 K, 60900 kPa	51.94 ± 1.1 mPa·s
273.15 K, 81800 kPa	78.37 ± 2 mPa·s
273.15 K, 102000 kPa	114.7 ± 3.8 mPa·s
273.15 K, 110600 kPa	132.5 ± 4.9 mPa·s
273.15 K, 149800 kPa	286.9 ± 17 mPa·s
283.15 K, 100 kPa	10.07 ± 0.22 mPa·s
293.15 K, 100 kPa	6.753 ± 0.15 mPa·s and 6.756 ± 0.15 mPa·s
298.15 K, 100 kPa	5.574 ± 0.12 mPa·s and 5.529 ± 0.12 mPa·s
298.15 K, 300 kPa	5.708 ± 0.13 mPa·s
298.15 K, 900 kPa	5.771 ± 0.13 mPa·s
298.15 K, 26000 kPa	8.4 ± 0.19 mPa·s
298.15 K, 50900 kPa	12.07 ± 0.27 mPa·s
298.15 K, 75600 kPa	17.19 ± 0.38 mPa·s
298.15 K, 100800 kPa	24.58 ± 0.55 mPa·s
298.15 K, 125500 kPa	34.9 ± 0.78 mPa·s
298.15 K, 150900 kPa	49.92 ± 1.1 mPa·s
298.15 K, 175100 kPa	70.34 ± 1.7 mPa·s
298.15 K, 200700 kPa	101 ± 3.1 mPa·s
298.15 K, 225200 kPa	143.1 ± 5.5 mPa·s
298.15 K, 250700 kPa	206 ± 10 mPa·s
303.15 K, 100 kPa	4.847 ± 0.11 mPa·s
313.15 K, 100 kPa	3.641 ± 0.081 mPa·s and 3.644 ± 0.081 mPa·s and 3.646 ± 0.081 mPa·s
323.15 K, 100 kPa	2.859 ± 0.063 mPa·s and 2.857 ± 0.063 mPa·s
323.15 K, 25900 kPa	3.952 ± 0.088 mPa·s
323.15 K, 50900 kPa	5.32 ± 0.12 mPa·s
323.15 K, 75800 kPa	7.088 ± 0.16 mPa·s
323.15 K, 100600 kPa	9.368 ± 0.21 mPa·s
323.15 K, 125700 kPa	12.33 ± 0.27 mPa·s
323.15 K, 150400 kPa	16.17 ± 0.36 mPa·s
323.15 K, 174800 kPa	20.75 ± 0.46 mPa·s
323.15 K, 175600 kPa	21.33 ± 0.47 mPa·s
323.15 K, 200800 kPa	28.03 ± 0.62 mPa·s
323.15 K, 225600 kPa	36.82 ± 0.82 mPa·s
323.15 K, 250400 kPa	48.19 ± 1.1 mPa·s
323.15 K, 275200 kPa	62.86 ± 1.4 mPa·s
323.15 K, 300000 kPa	82.18 ± 2.1 mPa·s
323.15 K, 300100 kPa	82.04 ± 2.1 mPa·s
333.15 K, 100 kPa	2.3 ± 0.051 mPa·s
343.15 K, 100 kPa	1.834 ± 0.041 mPa·s [middle of 5 runs]
348.15 K, 100 kPa	1.728 ± 0.038 mPa·s and 1.73 ± 0.038 mPa·s
348.15 K, 10800 kPa	1.956 ± 0.043 mPa·s
348.15 K, 25400 kPa	2.3 ± 0.051 mPa·s
348.15 K, 50800 kPa	2.994 ± 0.066 mPa·s
348.15 K, 75900 kPa	3.826 ± 0.085 mPa·s
348.15 K, 100800 kPa	4.842 ± 0.11 mPa·s
348.15 K, 125700 kPa	6.009 ± 0.13 mPa·s
348.15 K, 150700 kPa	7.634 ± 0.17 mPa·s
348.15 K, 175700 kPa	9.511 ± 0.21 mPa·s
348.15 K, 200700 kPa	11.85 ± 0.26 mPa·s
348.15 K, 225700 kPa	14.77 ± 0.33 mPa·s
348.15 K, 250500 kPa	18.23 ± 0.4 mPa·s
348.15 K, 275300 kPa	22.56 ± 0.5 mPa·s
348.15 K, 276300 kPa	22.83 ± 0.51 mPa·s
348.15 K, 302300 kPa	28.48 ± 0.63 mPa·s
348.15 K, 315200 kPa	31.58 ± 0.7 mPa·s

Conditions	mass density [kg/m3]
273.15 K	981.12 ± 0.34
278.15 K	977.18 ± 0.35
283.15 K	973.25 ± 0.35
288.15 K	969.32 ± 0.36
293.15 K	965.4 ± 0.36
298.15 K	961.49 ± 0.37
303.15 K	957.57 ± 0.37
313.15 K	949.73 ± 0.38
323.15 K	941.92 ± 0.39
333.15 K	934.11 ± 0.4
343.15 K	926.28 ± 0.41
353.15 K	918.45 ± 0.42
363.15 K	910.61 ± 0.43

CCCCC(CC)COC(=O)c1ccccc1C(=O)OCC(CC)CCCC (stereo not drawn) [bis(2-ethylhexyl) 1,2-benzenedicarboxylate]
Conditions	viscosity
273.15 K, 100 kPa	359.9 ± 24 mPa·s and 359.7 ± 24 mPa·s
273.15 K, 24100 kPa	680.7 ± 60 mPa·s
283.15 K, 100 kPa	158 ± 6.5 mPa·s and 158.6 ± 6.5 mPa·s
283.15 K, 400 kPa	160.2 ± 6.6 mPa·s
283.15 K, 20800 kPa	266.5 ± 15 mPa·s
283.15 K, 41000 kPa	430.5 ± 31 mPa·s
283.15 K, 60000 kPa	663.5 ± 58 mPa·s
283.15 K, 80400 kPa	1034 ± 110 mPa·s
283.15 K, 100100 kPa	1566 ± 180 mPa·s
283.15 K, 123400 kPa	2473 ± 330 mPa·s
298.15 K, 100 kPa	58.79 ± 1.2 mPa·s and 57.58 ± 1.2 mPa·s and 57.59 ± 1.2 mPa·s
298.15 K, 600 kPa	59.35 ± 1.3 mPa·s
298.15 K, 25800 kPa	103.4 ± 3.1 mPa·s
298.15 K, 50000 kPa	167.4 ± 7.1 mPa·s
298.15 K, 50900 kPa	174.2 ± 7.6 mPa·s
298.15 K, 76300 kPa	287.8 ± 17 mPa·s
298.15 K, 100500 kPa	455.2 ± 34 mPa·s
298.15 K, 126600 kPa	730.7 ± 66 mPa·s
298.15 K, 150400 kPa	1103 ± 120 mPa·s
298.15 K, 174300 kPa	1631 ± 190 mPa·s
298.15 K, 199800 kPa	2527 ± 340 mPa·s
303.15 K, 100 kPa	44.29 ± 0.96 mPa·s and 44.2 ± 0.96 mPa·s and 43.49 ± 0.94 mPa·s
310.93 K, 100 kPa	28.88 ± 0.63 mPa·s [middle of 4 runs]
310.93 K, 47400 kPa	73.56 ± 1.8 mPa·s
310.93 K, 75300 kPa	120.3 ± 4.1 mPa·s
310.93 K, 99500 kPa	185.1 ± 8.4 mPa·s
310.93 K, 148600 kPa	413.1 ± 30 mPa·s
310.93 K, 176000 kPa	617.9 ± 52 mPa·s
310.93 K, 201800 kPa	912.7 ± 90 mPa·s
310.93 K, 223800 kPa	1259 ± 140 mPa·s
310.93 K, 247800 kPa	1794 ± 220 mPa·s
310.93 K, 250800 kPa	1819 ± 220 mPa·s
310.93 K, 274000 kPa	2555 ± 340 mPa·s
313.15 K, 100 kPa	26.6 ± 0.58 mPa·s and 26.58 ± 0.58 mPa·s
323.15 K, 100 kPa	17.17 ± 0.37 mPa·s and 17.01 ± 0.37 mPa·s and 17.1 ± 0.37 mPa·s
323.15 K, 700 kPa	17.26 ± 0.37 mPa·s
323.15 K, 10600 kPa	20.76 ± 0.45 mPa·s
323.15 K, 25700 kPa	27.26 ± 0.59 mPa·s
323.15 K, 50700 kPa	42.19 ± 0.92 mPa·s
323.15 K, 75600 kPa	63.74 ± 1.4 mPa·s
323.15 K, 100600 kPa	94.67 ± 2.7 mPa·s
323.15 K, 125600 kPa	138.7 ± 5.2 mPa·s
323.15 K, 150600 kPa	200.2 ± 9.5 mPa·s
323.15 K, 175600 kPa	286.3 ± 17 mPa·s
323.15 K, 200300 kPa	403.4 ± 28 mPa·s
323.15 K, 223100 kPa	539 ± 43 mPa·s
323.15 K, 252300 kPa	794.8 ± 74 mPa·s
323.15 K, 276700 kPa	1055.1 ± 110 mPa·s
323.15 K, 295400 kPa	1355.1 ± 150 mPa·s
323.15 K, 323700 kPa	1952.3 ± 240 mPa·s
333.15 K, 100 kPa	11.73 ± 0.25 mPa·s and 11.71 ± 0.25 mPa·s
343.15 K, 100 kPa	8.499 ± 0.18 mPa·s and 8.51 ± 0.18 mPa·s
348.15 K, 100 kPa	7.416 ± 0.16 mPa·s and 7.422 ± 0.16 mPa·s
348.15 K, 50800 kPa	15.52 ± 0.34 mPa·s
348.15 K, 54100 kPa	16.45 ± 0.36 mPa·s
348.15 K, 75900 kPa	22.09 ± 0.48 mPa·s
348.15 K, 100800 kPa	30.91 ± 0.67 mPa·s
348.15 K, 103500 kPa	32.17 ± 0.7 mPa·s
348.15 K, 125800 kPa	42.61 ± 0.92 mPa·s
348.15 K, 150800 kPa	58.12 ± 1.2 mPa·s
348.15 K, 175700 kPa	78.72 ± 1.9 mPa·s
348.15 K, 200700 kPa	105.6 ± 3.3 mPa·s
348.15 K, 225500 kPa	140.4 ± 5.3 mPa·s
348.15 K, 250300 kPa	185.6 ± 8.4 mPa·s
348.15 K, 275000 kPa	243.8 ± 13 mPa·s
348.15 K, 299100 kPa	316.7 ± 20 mPa·s
348.15 K, 324100 kPa	412.7 ± 29 mPa·s
348.15 K, 348100 kPa	529.4 ± 42 mPa·s
348.15 K, 371000 kPa	669 ± 59 mPa·s

Conditions	mass density [kg/m3]
273.15 K	998.82 ± 0.14
278.15 K	995.01 ± 0.15
283.15 K	991.26 ± 0.15
293.15 K	983.87 ± 0.16
298.15 K	980.15 ± 0.16
303.15 K	976.42 ± 0.16
313.15 K	968.98 ± 0.17
323.15 K	961.53 ± 0.17
333.15 K	954.11 ± 0.18
343.15 K	946.68 ± 0.19
353.15 K	939.27 ± 0.19
363.15 K	931.85 ± 0.2

Reference: the NIST ThermoML archive (doi:10.1021/je900284z)
